Data from ChEMBL document CHEMBL1137960, “Miraziridine A: natures blueprint towards protease class-spanning inhibitors” (Bioorg Med Chem Lett, 2004).
Non-standard residues stand in square brackets, D forms with d. Residues, ends and D or L forms follow the SMILES beside them. ξ: configuration not given here. *: point of attachment. Sta = CC(C)C[C@H](N)[C@@H](O)CC(=O)O; X1 = CC(=O)c1cn(*)c2ccccc12; Isovaleryl = CC(C)CC(=O)*; ξIva = CCC(C)(N)C(=O)O

How the values were obtained:
[1] = target: Cathepsin B (Homo sapiens) (UniProt P07858); assay: Second order rate constant for cathepsin B
[2] = target: Procathepsin L (Homo sapiens) (UniProt P07711); assay: Second order rate constant for cathepsin L
Pepsin A = Pepsin A (Sus scrofa, UniProt P00791); assay: (§1) Inhibitory activity against aspartyl protease pepsin
[3] = target: Cathepsin B (Homo sapiens) (UniProt P07858); assay: Inhibitory activity against cysteine protease cathepsin B
[4] = target: Procathepsin L (Homo sapiens) (UniProt P07711); assay: Inhibitory activity against cysteine protease cathepsin L
[5] = target: Serine protease 1 (Homo sapiens) (UniProt P07477); assay: Inhibitory activity against serine protease trypsin
Pepsin A (Sus scrofa) = Pepsin A (Sus scrofa) (UniProt P00791); assay: as §1
Pepsin A (Sus scrofa), sequence (P00791 60-385 limits assumed): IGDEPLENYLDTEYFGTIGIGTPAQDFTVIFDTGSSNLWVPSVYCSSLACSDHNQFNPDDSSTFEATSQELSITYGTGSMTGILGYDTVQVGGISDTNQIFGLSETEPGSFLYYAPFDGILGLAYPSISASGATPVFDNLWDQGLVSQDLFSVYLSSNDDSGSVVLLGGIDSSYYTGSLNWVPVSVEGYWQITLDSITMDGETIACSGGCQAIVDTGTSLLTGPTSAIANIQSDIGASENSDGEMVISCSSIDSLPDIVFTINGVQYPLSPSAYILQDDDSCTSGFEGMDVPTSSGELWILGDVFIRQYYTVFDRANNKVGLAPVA

Pepsin A, sequence (P00791 whole entry): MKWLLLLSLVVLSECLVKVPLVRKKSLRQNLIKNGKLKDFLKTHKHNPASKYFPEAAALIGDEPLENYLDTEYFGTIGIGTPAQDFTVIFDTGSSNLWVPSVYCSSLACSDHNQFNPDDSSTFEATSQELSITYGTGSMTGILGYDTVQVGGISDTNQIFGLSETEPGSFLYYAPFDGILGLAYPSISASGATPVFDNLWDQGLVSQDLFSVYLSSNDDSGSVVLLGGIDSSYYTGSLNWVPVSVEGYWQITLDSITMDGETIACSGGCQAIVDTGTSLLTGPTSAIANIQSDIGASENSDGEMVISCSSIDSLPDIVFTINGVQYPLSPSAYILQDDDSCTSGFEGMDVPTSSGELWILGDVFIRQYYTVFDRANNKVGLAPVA
Procathepsin L (Homo sapiens), sequence (P07711 114-333 limits assumed): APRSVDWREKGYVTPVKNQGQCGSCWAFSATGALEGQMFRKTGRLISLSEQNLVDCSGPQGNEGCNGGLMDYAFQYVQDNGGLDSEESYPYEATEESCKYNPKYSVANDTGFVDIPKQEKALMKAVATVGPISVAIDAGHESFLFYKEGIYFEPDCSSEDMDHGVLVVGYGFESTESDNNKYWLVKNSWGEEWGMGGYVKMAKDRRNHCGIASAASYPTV
Serine protease 1 (Homo sapiens), sequence (P07477 whole entry): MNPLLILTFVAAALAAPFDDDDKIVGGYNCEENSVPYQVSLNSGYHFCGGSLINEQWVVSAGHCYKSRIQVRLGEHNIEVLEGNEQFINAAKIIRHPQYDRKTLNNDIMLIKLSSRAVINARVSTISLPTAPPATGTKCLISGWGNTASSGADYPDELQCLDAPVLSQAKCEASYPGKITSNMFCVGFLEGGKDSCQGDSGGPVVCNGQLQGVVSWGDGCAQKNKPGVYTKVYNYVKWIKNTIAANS

Structure (SMILES): CC(C)CCNC(=O)[C@H](CC(C)C)NC(=O)[C@@H]1N[C@H]1C(=O)O
- k2/Ki [1]: 17000 M⁻¹ s⁻¹
- k2/Ki [2]: 120000 M⁻¹ s⁻¹

Structure (SMILES): CCC(C)(N)C(=O)N[C@H](C(=O)N[C@@H](CC(C)C)[C@@H](O)CC(=O)N[C@@H](C)C(=O)n1cc(C(C)=O)c2ccccc21)C(C)C (some centres undefined) (H-[ξIva]V[Sta]A-X1)
- Ki (Pepsin A): 3 nM

Structure (SMILES): CC(C)CC(=O)N[C@H](C(=O)N[C@H](C(=O)N[C@@H](CC(C)C)[C@@H](O)CC(=O)N[C@@H](C)C(=O)N[C@@H](CC(C)C)[C@@H](O)CC(=O)O)C(C)C)C(C)C (Isovaleryl-VV[Sta]A[Sta]-OH)
- Ki (Pepsin A): 0.046 nM

Structure (SMILES): CC[C@H](NC(=O)C[C@H](O)[C@H](CC(C)C)NC(=O)[C@H](CC(C)C)NC(=O)[C@@H]1N[C@H]1C(=O)O)C(=O)N[C@H](/C=C/C(=O)O)CCCN=C(N)N [MIRAZIRIDINE A]
- Ki (Pepsin A): 14 nM
- Affinity [3]: 15000 M⁻¹ s⁻¹
- Affinity [4]: 1e+06 M⁻¹ s⁻¹
- Affinity [5]: 60 µM
- Affinity (Pepsin A (Sus scrofa)): 14 nM
